Test systems include SF-295 CNS; NCI-H522 lung; K-562 leukemia; COLO 205 colon; SK-MEL-28 melanoma; SF-539 CNS; SK-MEL-5 melanoma; SF-268 CNS; SK-MEL-2 melanoma; CAKI-1 renal.
Common to all, as to assay: NCI-60 cell line screen, 48 h

Values joined by “and” are separate entries in the source; they are usually repeats but may differ in a detail not shown here. Identical values can stand only once.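 Cells were grown in 96-well plates and exposed to each compound for 48 hours at five concentrations; endpoints were interpolated linearly between bracketing concentrations, or set to the highest concentration if not reached. GI50 marks 50% less growth. Definition used: TGI = concentration required for complete inhibition of growth.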

As for `C[C@]12CCC3[C@@H](CC[C@@H]4c5nonc5CC[C@]34C)C1CCC(=O)N2` (stereo not given in full), the TGI in the test with SF-295 CNS, with NCI-H522 lung, in the test on K-562 leukemia, in the test with COLO 205 colon, with SK-MEL-28 melanoma and in the test with SF-539 CNS was over 100 µM each time. The TGI in the test with SK-MEL-5 melanoma, in the test on SF-268 CNS, in the test on SK-MEL-2 melanoma and in the test with CAKI-1 renal was over 100 µM in each case.

For the compound `Cc1ccc(C(=O)Nc2cccc(C(F)(F)F)c2)cc1Nc1nc(-c2cccnc2)nc2c1cnn2C`, the GI50 in the test with SF-295 CNS was 2.12 µM and 1.84 µM; with NCI-H522 lung, 4.68 µM and 1.37 µM; with K-562 leukemia it was 0.0359 µM and 0.0309 µM; in the test with COLO 205 colon it was 1.22 µM and 0.575 µM; in the test on SK-MEL-28 melanoma, 0.866 µM and 0.389 µM; in the test on SF-539 CNS, 2.59 µM and 1.22 µM. The GI50 was 1.74 µM and 1.24 µM with SK-MEL-5 melanoma; 4.01 µM and 2.91 µM in the test on SF-268 CNS; 0.721 µM and 0.367 µM in the test with SK-MEL-2 melanoma; 2.44 µM and 1.33 µM with CAKI-1 renal. Also, the TGI in the test with SF-295 CNS is 4.99 µM and 4.47 µM; in the test on NCI-H522 lung, 27.3 µM and 5.09 µM; in the test with K-562 leukemia, over 100 µM; with COLO 205 colon, 5.79 µM and 3.65 µM; with SK-MEL-28 melanoma, 7.66 µM and 3.4 µM; with SF-539 CNS it was 13.3 µM and 3.28 µM. For the same compound, the TGI was 4.06 µM and 2.96 µM with SK-MEL-5 melanoma; 21.9 µM and > 10 µM with SF-268 CNS; 5.03 µM and 2.07 µM with SK-MEL-2 melanoma; 11.8 µM and 3.35 µM in the test with CAKI-1 renal.

As to `Clc1cc(Cl)c(OCC#CI)cc1Cl`, the GI50 is 10.4 µM with SF-295 CNS; 1.53 µM in the test on NCI-H522 lung; 3.49 µM with K-562 leukemia; 1.57 µM in the test on COLO 205 colon; 2.12 µM with SK-MEL-28 melanoma; 2.94 µM in the test on SF-539 CNS. In addition, the GI50 was 5.93 µM in the test with SK-MEL-5 melanoma, 11 µM in the test on SF-268 CNS, 7.98 µM in the test with SK-MEL-2 melanoma and 1.09 µM in the test on CAKI-1 renal. Also, the TGI was 23.7 µM with SF-295 CNS; 3.7 µM in the test with NCI-H522 lung; 18.9 µM with K-562 leukemia; 3.06 µM in the test with COLO 205 colon; 5.14 µM in the test with SK-MEL-28 melanoma; 12.8 µM with SF-539 CNS. Moreover, the TGI in the test with SK-MEL-5 melanoma worked out at 18.9 µM; with SF-268 CNS it was 23.4 µM; in the test on SK-MEL-2 melanoma it was 21.3 µM; in the test on CAKI-1 renal, 2.69 µM.

Take `CSCC1CC(c2ccc(Cl)cc2)=NO1` (stereo not given): the TGI in the test on SF-295 CNS, with NCI-H522 lung, in the test with K-562 leukemia, with COLO 205 colon, with SK-MEL-28 melanoma and with SF-539 CNS was over 100 µM each time. The TGI with SK-MEL-5 melanoma, with SF-268 CNS, in the test with SK-MEL-2 melanoma and in the test with CAKI-1 renal was over 100 µM throughout.

As for `Cc1cc2c(C)n(Cc3ccc(Cl)cc3Cl)nc2c(C#N)c1C`, the TGI in the test on SF-295 CNS is 60.9 µM; in the test with NCI-H522 lung, over 100 µM; with K-562 leukemia, over 100 µM; in the test on COLO 205 colon, over 100 µM; in the test with SK-MEL-28 melanoma it was over 100 µM; in the test with SF-539 CNS it was over 62.5 µM. Besides, the TGI in the test on SK-MEL-5 melanoma, in the test with SF-268 CNS, in the test on SK-MEL-2 melanoma and in the test on CAKI-1 renal was over 100 µM each time.

Regarding `c1ccc2c(C3NCCc4[nH]cnc43)cccc2c1` (stereo not given), the TGI in the test on SF-295 CNS, in the test with NCI-H522 lung, with K-562 leukemia, with COLO 205 colon, in the test with SK-MEL-28 melanoma and in the test with SF-539 CNS was over 100 µM each time. Besides, the TGI in the test with SK-MEL-5 melanoma, with SF-268 CNS, in the test with SK-MEL-2 melanoma and in the test on CAKI-1 renal was over 100 µM in each case.

As for `O=C(c1ccccc1)C(CN1CCOCC1)c1ccccc1` (stereo not given), the GI50 is 2.67 µM with SF-295 CNS; 0.255 µM in the test with NCI-H522 lung; 0.355 µM with K-562 leukemia; 1.76 µM with COLO 205 colon; 1.76 µM in the test on SK-MEL-28 melanoma; 2.11 µM with SF-539 CNS. The GI50 with SK-MEL-5 melanoma is 1.76 µM; in the test with SF-268 CNS it was 1.65 µM; in the test with SK-MEL-2 melanoma it was 1.67 µM; with CAKI-1 renal, 0.565 µM. Further, the TGI in the test on SF-295 CNS amounted to 10.4 µM; in the test with NCI-H522 lung it was 0.995 µM; in the test on K-562 leukemia, 3.38 µM; in the test with COLO 205 colon, 3.32 µM; with SK-MEL-28 melanoma, 3.35 µM; with SF-539 CNS, 4.47 µM. Also, the TGI came out at 3.77 µM with SK-MEL-5 melanoma, 3.47 µM in the test with SF-268 CNS, 3.39 µM in the test on SK-MEL-2 melanoma and 1.95 µM with CAKI-1 renal.

Turning to `O=S(=O)(NCCNC/C=C/c1ccc(Br)cc1)c1cccc2cnccc12`, the GI50 in the test on SF-295 CNS was 6.47 µM and 11.6 µM; in the test with NCI-H522 lung, 12.6 µM and 13.7 µM; in the test with K-562 leukemia it was 6.63 µM; in the test on COLO 205 colon, 2.23 µM and 10.7 µM; in the test with SK-MEL-28 melanoma, 7.33 µM and 11.2 µM; in the test with SF-539 CNS, 7.74 µM and 9.35 µM. In addition, the GI50 in the test with SK-MEL-5 melanoma is 6.07 µM and 13.3 µM; with SF-268 CNS it was 8.14 µM and 11.1 µM; in the test with SK-MEL-2 melanoma it was 11.2 µM and 16.8 µM; in the test on CAKI-1 renal, 4.15 µM and 9.99 µM. Besides, the TGI was 22.9 µM and 25.1 µM with SF-295 CNS; 26.6 µM and 28.3 µM in the test with NCI-H522 lung; > 36.7 µM and 27.3 µM with K-562 leukemia; 4.9 µM and 24.6 µM in the test on COLO 205 colon; 20 µM and 25.4 µM in the test on SK-MEL-28 melanoma; 21.9 µM and 22.6 µM in the test on SF-539 CNS. Also, the TGI with SK-MEL-5 melanoma was 19.3 µM and 26.5 µM; with SF-268 CNS, 22.1 µM and 25.7 µM; in the test on SK-MEL-2 melanoma, 24.4 µM and 34 µM; with CAKI-1 renal, 18 µM and 27 µM.

On to `CC1=C(CCC(C)N(C)Cc2ccc(OCCCN3CCCC3)cc2)C(C)(C)CCC1` (stereo not given), for which the GI50 is 1.89 µM in the test on SF-295 CNS; 2.33 µM in the test with NCI-H522 lung; 1.67 µM in the test with K-562 leukemia; 1.56 µM in the test on COLO 205 colon; 1.68 µM in the test on SK-MEL-28 melanoma; 1.66 µM with SF-539 CNS. Further, the GI50 was 1.75 µM with SK-MEL-5 melanoma, 4.07 µM in the test on SF-268 CNS, 2.96 µM with SK-MEL-2 melanoma and 11.3 µM in the test with CAKI-1 renal. The TGI in the test on SF-295 CNS is 4.09 µM; in the test with NCI-H522 lung, 4.99 µM; with K-562 leukemia it was 4.06 µM; in the test on COLO 205 colon it was 3.42 µM; with SK-MEL-28 melanoma it was 3.5 µM; in the test on SF-539 CNS, 3.28 µM. The TGI in the test with SK-MEL-5 melanoma is 3.15 µM; in the test on SF-268 CNS, 17.5 µM; in the test on SK-MEL-2 melanoma, 7.49 µM; in the test with CAKI-1 renal it was 24.3 µM.

(Values after PubChem BioAssay (NCI).)
